# Measured values reported in patent US20240262803A1, “COMPOUNDS, COMPOSITIONS AND METHODS OF TREATING DISORDERS” (Chungdu Anticancer Bioscience Ltd, priority 2021, published 2024).
# “Also recorded” adds a separate entry of the source.
# Assays:
# [1] = system: lung cancer cell line NCI-H23; test: Minimal effective concentration that elicits polyploidy, NCI-H23; format: cell-based; details: Homo sapiens, read-out: MECP: Minimal effective concentration that elicits polyploidy
# [2] = system: breast cancer cell line MDA-MB-231; test: MTT assay of cellular proliferation, MDA-MB-231; format: cell-based; details: Homo sapiens, read-out: EC50: Concentration that inhibits 50% of proliferation
# How it was run: (§1)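 First, mid-log cells are seeded in DMEM containing 5% FBS and grown 15˜24 h to 20˜30% confluence. Next, compounds are added across 1 nM to 10 μM. Finally, MTT is given for 3˜4 h, formazan is dissolved and read at A570 to derive EC50.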
# [3] = system: glioblastoma cell line T98G; test: Minimal effective concentration that elicits polyploidy, T98G; format: cell-based, human
# [4] = system: human lung cancer cell line NCI-H23; test: Soft agar colony formation assay, NCI-H23; format: cell-based; details: NCI-H23, 3D culture, FIG. 2
# Description: (§2) Six lung cancer cell lines (NCI-H23, NCI-H460, NCI-H596, NCI-H2170, Calu-6 and A549), two colon cancer cell lines (HCT116 and SW460), one breast cancer cell line MDA-MB-231, one gastric cancer cell line NCI-N87, one prostate cancer cell line DU145, one cervical cancer cell line Hela, and one glioblastoma cell line T98G were obtained from ATCC. The T2 HCC cell line was derived from a mouse liver cancer model initiated by a transgene of MYC (Reference). All cell lines were cultured in DMEM (Gibco, Cleveland, TN, USA) supplemented with 5% fetal bovine serum (Gibco), penicillin (100 U/mL)-streptomycin (100 μg/mL) (Gibco, Cat. No. 15140-122), 2 mM L-glutamine (Gibco, 200 mM solution, Cat. No. 25030081), and 1 mM sodium pyruvate (Gibco, 100 mM solution, Cat. No. 11360070) at 37° C. in a humidified incubator that was maintained at 5% CO2.
# Measuring the ability of cells to grow in soft agar has been popularly believed as the gold standard assay for cellular transformation in vitro. In the Soft Agar Assay, cells grow from single cells to cell colonies in a semi-solid agar solution that keeps them away from the solid surface and allows growth in an anchorage-independent way.
# The anchorage-independent growth of cells is one of the hallmarks of cancer cells. Normal epithelial cells are supported by basement membranes that provide survival and proliferative signals while undergo a type of apoptosis called anoikis when lose their attachment to the extracellular matrix. Cancer cells, in contrast, evade attachment-induced apoptosis, leading to uncontrolled proliferation and metastasis. The Soft Agar Colony Formation Assay allows testing of the therapeutic efficacy of compounds against anchorage-independent 3D growth of cancer cells in vitro. The assay was performed in 6-well plates with two layers of agar. For the first, 0.75% agar in DMEM medium was melted in a microwave oven and poured to form a bottom layer. […] Cell culture medium was changed once every two days until colonies were ready to photograph. […]
# [5] = system: lung cancer cell line NCI-H460; test: Minimal effective concentration that elicits polyploidy, NCI-H460; format: cell-based, human
# [6] = system: colon cancer cell line HCT116; test: MTT assay of cellular proliferation, HCT116; format: cell-based; details: Homo sapiens, HCT-116, read-out: EC50: Concentration that inhibits 50% of proliferation
# How it was run: as §1
# [7] = system: lung cancer cell line Calu-6; test: MTT assay of cellular proliferation, Calu-6; format: cell-based; details: Homo sapiens, read-out: EC50: Concentration that inhibits 50% of proliferation
# Description: as §2
# (§3) The MTT assay measures cellular metabolic activity as a proxy for cell viability and involves the conversion of the water-soluble yellow dye MTT [3-(4,5-dimethylthiazol-2-yl)-2,5-diphenyltetrazolium bromide] into an insoluble purple formazan by the action of mitochondrial reductase. Formazan is then solubilized and its concentration is determined by measuring the optical density (OD) value at a wavelength of 570 nm. The value is in proportional to the number of live cells with excellent linearity up to ˜10^6 cells per well. The MTT assay was used to determine the EC50 value, the concentration of a compound that leads to 50% inhibition of cellular proliferation. Briefly, cells were split when growing to the mid-Log phase. Cells in 100 μL of culture medium were seeded into each well of 96-well microplates and cultivated for 15˜24 hours to reach a confluence of 20˜30% and were then exposed to drugs at concentrations ranging from 1 nM to 10 μM. At the endpoint, 20 μL of a MTT stock solution in DMSO (5 mg/mL) was added to each well that contains […] of DMEM. The microplates were left in the cell culture incubator for 3˜4 h before subjected to solubilization and determination of formazan at A570 in a microplate reader (BioTek ELX808iu). […] Therefore, these compounds might hold a broad utility in the treatment of a large variety of human malignancies.
# [8] = system: lung cancer cell line NCI-H596; test: Minimal effective concentration that elicits polyploidy, NCI-H596; format: cell-based, human
# [9] = system: lung cancer cell line NCI-H23; test: MTT assay of cellular proliferation, NCI-H23; format: cell-based; details: Homo sapiens, read-out: EC50: Concentration that inhibits 50% of proliferation
# How it was run: as §1
# [10] = system: breast cancer cell line MDA-MB-231; test: Minimal effective concentration that elicits polyploidy, MDA-MB-231; format: cell-based; details: Homo sapiens, read-out: MECP: Minimal effective concentration that elicits polyploidy
# [11] = system: cervical cancer cell line Hela; test: Minimal effective concentration that elicits polyploidy, Hela; format: cell-based; details: Homo sapiens, read-out: MECP: Minimal effective concentration that elicits polyploidy
# [12] = system: RPEMYC^H2B-GFP cells; test: Mechanism-informed phenotypic screening assay (mitotic arrest, polyploidy; GE IN-Cell Analyzer 2000); format: cell-based; details: 20 nM to 20 μM, 24, 48 or 72 hours, read-out: Mitotic Arrest (≥5%)
# [13] = system: gastric cancer cell line NCI-N87; test: MTT assay of cellular proliferation, NCI-N87; format: cell-based; details: Homo sapiens, read-out: EC50: Concentration that inhibits 50% of proliferation
# How it was run: as §1
# [14] = system: liver cancer cell line T2 HCC; test: MTT assay of cellular proliferation, T2 HCC; format: cell-based; details: Mus musculus, read-out: EC50: Concentration that inhibits 50% of proliferation
# How it was run: as §1
# [15] = system: lung cancer cell line NCI-H2170; test: Minimal effective concentration that elicits polyploidy, NCI-H2170; format: cell-based, human
# [16] = system: lung cancer cell line NCI-H596; test: MTT assay of cellular proliferation, NCI-H596; format: cell-based; details: Homo sapiens, read-out: EC50: Concentration that inhibits 50% of proliferation
# Description: as §2, §3
# [17] = system: prostate cancer cell line DU145; test: Minimal effective concentration that elicits polyploidy, DU145; format: cell-based, human
# [18] = system: glioblastoma cell line T98G; test: MTT assay of cellular proliferation, T98G; format: cell-based; details: Homo sapiens, read-out: EC50: Concentration that inhibits 50% of proliferation
# Description: as §2, §3
# [19] = system: lung cancer cell line A549; test: Minimal effective concentration that elicits polyploidy, A549; format: cell-based; details: Homo sapiens, read-out: MECP: Minimal effective concentration that elicits polyploidy
# [20] = system: lung cancer cell line Calu-6; test: Minimal effective concentration that elicits polyploidy, Calu-6; format: cell-based, human
# [21] = system: lung cancer cell line NCI-H2170; test: MTT assay of cellular proliferation, NCI-H2170; format: cell-based; details: Homo sapiens, read-out: EC50: Concentration that inhibits 50% of proliferation
# Description: as §2, §3
SMILES,minimal effective concentration [1] [µM],EC50 [2] [nM],MECP: Minimal effective concentration that elicits polyploidy [3],anchorage-independent growth in soft agar [4],MECP: Minimal effective concentration that elicits polyploidy [5],EC50 [6] [nM],EC50 [7] [nM],MECP: Minimal effective concentration that elicits polyploidy [8],EC50 [9] [nM],minimal effective concentration [10] [µM],minimal effective concentration [11] [µM],minimal effective concentration [12] [µM],EC50 [13] [nM],EC50 [14] [nM],MECP: Minimal effective concentration that elicits polyploidy [15],EC50 [16] [nM],MECP: Minimal effective concentration that elicits polyploidy [17],EC50 [18] [nM],MECP: Minimal effective concentration that elicits polyploidy [20],EC50 [21] [nM],further results
"COC(=O)c1cc(Oc2ncccc2-c2ccncc2)cc(C(=O)OC)c1 [Compound 1, Dimethyl 5-([3,4′-bipyridin]-2-yloxy)isophthalate]",0.001 to 1,1 to 1000,A (A: 1 nM < conc. ≤ 1 μM),completely blocked the growth,B (B: 1 μM < conc. ≤ 10 μM),1 to 1000,1 to 1000,A (A: 1 nM < conc. ≤ 1 μM),1 to 1000,0.001 to 1,0.001 to 1,1,1 to 1000,1 to 1000,A (A: 1 nM < conc. ≤ 1 μM),10000 to 30000,A (A: 1 nM < conc. ≤ 1 μM),1 to 1000,A (A: 1 nM < conc. ≤ 1 μM),1 to 1000,minimal effective concentration [19]: 1 to 10 µM
"COC(=O)c1cc(OC)cc(Oc2ncccc2-c2ccncc2)c1 [Compound 2, Methyl 3-([3,4′-bipyridin]-2-yloxy)-5-methoxybenzoate]",0.001 to 1,1 to 1000,A (A: 1 nM < conc. ≤ 1 μM),Suppresses the Anchorage-independent Growth; also recorded: completely blocked the growth,B (B: 1 μM < conc. ≤ 10 μM),1 to 1000,1 to 1000,A (A: 1 nM < conc. ≤ 1 μM),1 to 1000,0.001 to 1,0.001 to 1,1,1 to 1000,1 to 1000,A (A: 1 nM < conc. ≤ 1 μM),1 to 1000,A (A: 1 nM < conc. ≤ 1 μM),1 to 1000,A (A: 1 nM < conc. ≤ 1 μM),1 to 1000,minimal effective concentration [19]: 1 to 10 µM
"COC(=O)c1cc(Oc2ncccc2-c2ccnc(N)n2)cc(C(=O)OC)c1 [Compound 21, dimethyl 5-((3-(2-aminopyrimidin-4-yl)pyridin-2-yl)oxy)isophthalate]",0.001 to 1,1 to 1000,B (B: 1 μM < conc. ≤ 10 μM),,B (B: 1 μM < conc. ≤ 10 μM),1 to 1000,1 to 1000,A (A: 1 nM < conc. ≤ 1 μM),1 to 1000,0.001 to 1,0.001 to 1,1,1 to 1000,1 to 1000,A (A: 1 nM < conc. ≤ 1 μM),1000 to 10000,A (A: 1 nM < conc. ≤ 1 μM),1000 to 10000,A (A: 1 nM < conc. ≤ 1 μM),1 to 1000,
"COC(=O)c1cc(OC)cc(Oc2ncccc2-c2ccnc(N)n2)c1 [Compound 23, Methyl 3-((3-(2-aminopyrimidin-4-yl)pyridin-2-yl)oxy)-5-methoxybenzoate]",0.001 to 1,1 to 1000,A (A: 1 nM < conc. ≤ 1 μM),Suppress the Anchorage-independent Growth; also recorded: completely blocked the growth,B (B: 1 μM < conc. ≤ 10 μM),1 to 1000,1 to 1000,A (A: 1 nM < conc. ≤ 1 μM),1 to 1000,0.001 to 1,0.001 to 1,1,1 to 1000,1000 to 10000,A (A: 1 nM < conc. ≤ 1 μM),1 to 1000,A (A: 1 nM < conc. ≤ 1 μM),10000 to 30000,A (A: 1 nM < conc. ≤ 1 μM),1 to 1000,minimal effective concentration [19]: 1 to 10 µM
